Values of other authors in patent US20200214978A1, “Functional chewing gum comprising phytonutrients and adaptogenic herbs” (BrilliantIQ AB, priority 2017, published 2020).

How the values were obtained:
[1] = oral administration
[2] = supplementation, group of healthy adults

Compound | beta waves [1] | delta waves [1] | increase the speed of calculations done in short-term memory [2]
C[N+](C)(C)CCOP(=O)([O-])OC[C@H](O)CO [alpha-GPC, L-Alpha glycerolphosphorylcholine] | significant increase | significant decrease | 
Phosphatidylserine |  |  | 20%
